According to patent US12590123B2, “Compounds and methods for treating cancer, viral infections, and allergic conditions” (Washington University, priority 2019, dated 2026):

What was measured:
Type in all cases: biochemical
[1] = molecular target: T1, recombinant HGFA serine protease domain (Homo sapiens, UniProt Q04756); experiment: Fluorescent kinetic enzyme assay of HGFA activity (Boc-QLR-AMC); settings: Table 2; read-out: HGFA (IC50 nM)
T1 construct: His6 tag (N); seven amino acid spacer plus TEV cleavage site (N); made in house; host or cells: High 5 insect cells (baculovirus; Sf9 for virus production)
T1 sequence (Q04756 373-655): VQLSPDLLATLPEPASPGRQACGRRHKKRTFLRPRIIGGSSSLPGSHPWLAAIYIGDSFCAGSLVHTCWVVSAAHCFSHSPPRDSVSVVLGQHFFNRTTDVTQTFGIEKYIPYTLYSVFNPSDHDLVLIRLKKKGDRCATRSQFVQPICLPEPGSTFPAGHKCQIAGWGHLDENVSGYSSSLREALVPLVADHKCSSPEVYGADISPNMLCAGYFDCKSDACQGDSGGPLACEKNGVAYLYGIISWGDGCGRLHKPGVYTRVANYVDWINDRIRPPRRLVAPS
Procedure, shortened: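 His-tagged HGFA protease domain from baculovirus-infected High 5 cells, 6.25 nM in pH 8 Tris/NaCl/5 mM CaCl2/0.01% Triton X-100 with 2% DMSO. IC50 from four-parameter velocity fit (≥3 runs); apparent Ki by Cheng–Prusoff.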

matriptase = molecular target: T2, matriptase (Homo sapiens, UniProt Q9Y5Y6); experiment: Fluorescent kinetic enzyme assay of matriptase activity (Boc-QAR-AMC); settings: Table 2; read-out: Matriptase (IC50 nM)
T2 construct: purchased R&D Systems 3946-SE-010
T2 sequence (Q9Y5Y6 615-855 limits assumed): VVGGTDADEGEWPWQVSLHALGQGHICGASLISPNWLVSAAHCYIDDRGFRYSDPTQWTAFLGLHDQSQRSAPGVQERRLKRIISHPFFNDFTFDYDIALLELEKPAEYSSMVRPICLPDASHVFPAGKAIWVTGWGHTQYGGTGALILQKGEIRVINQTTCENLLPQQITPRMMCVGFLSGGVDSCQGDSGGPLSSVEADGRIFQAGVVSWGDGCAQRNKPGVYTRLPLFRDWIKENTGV

activated hepsin = molecular target: T3, activated hepsin (Homo sapiens, UniProt P05981); experiment: Fluorescent kinetic enzyme assay of hepsin activity (Boc-QAR-AMC); settings: Table 2; read-out: Hepsin (IC50 nM)
T3 construct: purchased R&D Systems 4776-SE-010
Method: After thirty minutes of incubation at room temperature, Boc-QLR-AMC substrate was added (HGFA assay) or Boc-QAR-AMC substrate (matriptase, and hepsin assays). […] From a plot of the mean reaction velocity versus the inhibitor concentration, a non-linear four parameter curve fit was performed using GraphPad Prism (GraphPad Software, San Diego, CA) to determine inhibitor IC50s. The IC50 values were determined from the average of three or more separate experimental determinations. Apparent Ki values were calculated using the Cheng and Prusoff equation (Ki=IC50/(1+[S]/Km).
Inhibitors were pre-incubated with protease followed by the addition of the substrate. Inhibition of substrate proteolysis derived fluorescence was monitored kinetically over a period of one hour.

recombinant thrombin = recombinant thrombin (Homo sapiens, UniProt P00734); experiment: Chromogenic kinetic enzyme assay of thrombin (S2238); settings: Table 2; chromogenic assay; read-out: Thrombin* (IC50 nM)
Factor Xa = Factor Xa (Homo sapiens, UniProt P00742); experiment: Chromogenic kinetic enzyme assay of Factor Xa (S2222); settings: Table 2; chromogenic assay; read-out: Factor Xa* (IC50 nM)
Sequence of Factor Xa (P00742 235-488 limits assumed): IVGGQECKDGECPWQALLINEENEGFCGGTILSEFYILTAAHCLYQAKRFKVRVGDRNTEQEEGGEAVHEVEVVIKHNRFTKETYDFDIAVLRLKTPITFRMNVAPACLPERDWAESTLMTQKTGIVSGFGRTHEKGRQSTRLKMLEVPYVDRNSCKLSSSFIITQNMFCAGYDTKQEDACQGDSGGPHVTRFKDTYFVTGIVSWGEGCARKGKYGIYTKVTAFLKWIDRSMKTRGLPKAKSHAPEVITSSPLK
Sequence of Factor Xa (P00742 41-179 partner limits assumed): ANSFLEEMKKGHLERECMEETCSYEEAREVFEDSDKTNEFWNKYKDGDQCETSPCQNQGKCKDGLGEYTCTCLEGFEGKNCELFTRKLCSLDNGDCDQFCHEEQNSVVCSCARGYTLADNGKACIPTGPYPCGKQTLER

T3 sequence (P05981 163-417 limits assumed): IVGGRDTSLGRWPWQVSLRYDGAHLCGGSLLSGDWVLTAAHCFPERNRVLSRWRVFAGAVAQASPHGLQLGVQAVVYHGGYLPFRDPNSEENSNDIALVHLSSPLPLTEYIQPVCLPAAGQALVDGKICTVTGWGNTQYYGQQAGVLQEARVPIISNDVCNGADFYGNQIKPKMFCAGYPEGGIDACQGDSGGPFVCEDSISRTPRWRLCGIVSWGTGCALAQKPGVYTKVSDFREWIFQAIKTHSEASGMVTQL
T3 sequence (P05981 1-162 partner limits assumed): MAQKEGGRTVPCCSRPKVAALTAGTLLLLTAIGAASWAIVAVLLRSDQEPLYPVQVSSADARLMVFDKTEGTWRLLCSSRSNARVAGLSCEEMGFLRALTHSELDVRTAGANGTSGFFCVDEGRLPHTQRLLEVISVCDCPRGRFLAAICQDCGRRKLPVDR

CC(=O)N[C@H]1CC(=O)NCCCC[C@@H](C(=O)N[C@@H](CCCNC(=N)N)C(=O)c2nc3ccccc3s2)NC(=O)[C@H](Cc2ccccc2)NC1=O [VD3112, (3S,6S,14S)-6-acetamido-N—((S)-1-(benzo[d]thiazol-2-yl)-5-guanidino-1-oxopentan-2-yl)-3-benzyl-2,5,8-trioxo-1,4,9-triazacyclotetradecane-14-carboxamide] showed an IC50 [1] of 3170 nM, an IC50 (matriptase) of 3.4 nM and an IC50 (activated hepsin) of 17.4 nM. For the same molecule, the IC50 (recombinant thrombin) was 1090 nM and the IC50 (Factor Xa) was 1530 nM.
